The target in one test is T1, RMS3/PsD14 (Lathyrus oleraceus, UniProt A0A109QYD3).
T1 sequence (A0A109QYD3 1-267): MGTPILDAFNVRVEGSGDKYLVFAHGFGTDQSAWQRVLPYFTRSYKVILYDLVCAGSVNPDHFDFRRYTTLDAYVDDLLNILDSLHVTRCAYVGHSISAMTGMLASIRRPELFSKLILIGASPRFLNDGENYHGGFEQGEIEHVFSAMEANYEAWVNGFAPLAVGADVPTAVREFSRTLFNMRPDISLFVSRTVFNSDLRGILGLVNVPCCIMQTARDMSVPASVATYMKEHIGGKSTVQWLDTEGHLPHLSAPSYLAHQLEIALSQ
As to the kind of experiment: intrinsic tryptophan fluorescence titration (also nanoDSF and UPLC hydrolysis assay). In kind it is binding. (DSF heats the sample and reads unfolding from a dye or from intrinsic fluorescence.)

The target in another test is CpD14. Kind of test: intrinsic tryptophan fluorescence titration; UPLC hydrolysis assay; denaturing ESI-MS covalent adduct. In kind it is binding, Cryphonectria parasitica. From the text:
intrinsic tryptophan fluorescence titration; UPLC hydrolysis assay; denaturing ESI-MS covalent adduct on CpD14 | The interaction between (+)‐GR24 and CpD14 was confirmed using tryptophan intrinsic fluorescence assay

Structures are written as SMILES.

The Kd is the free concentration of one partner at which half of the binding sites on the other are occupied at equilibrium, for simple one-to-one binding. For `CC1=C[C@H](O/C=C2/C(=O)O[C@@H]3c4ccccc4C[C@H]23)OC1=O` [(+)-GR24], the Kd at RMS3/PsD14 worked out at 9.33 ± 4.27 µM; on CpD14, 203 ± 41.1 µM.
